Here are results for three compounds from paper PMC9039011, “Novel β-Cyclodextrin-Based Heptavalent Glycyrrhetinic Acid Conjugates: Synthesis, Characterization, and Anti-Influenza Activity” (Frontiers in Chemistry, 2022).

Series [1] in a line: Cytotoxicity assay (CellTiter-Glo cell viability). The following applies: dog. A general note: Cellular ATP, detected with luciferase, serves as a proxy for viable cell number.
For series [2], the target named is HA. The arrangement: method as in Sauter et al., 1989. The following applies: monovalent interaction; ref Sauter et al., 1989; read-out: dissociation constant (KD); cited from earlier work.
The test system of series [3] is MDCK cells. In words: Cytotoxicity assay (CellTiter-Glo cell viability). The following applies: dose-dependent, 10 and 25 μM.

Structures are written as SMILES.

Regarding `CC1(C)[C@@H](O)CC[C@]2(C)[C@H]3C(=O)C=C4[C@@H]5C[C@@](C)(C(=O)O)CC[C@]5(C)CC[C@@]4(C)[C@]3(C)CC[C@@H]12` [Compound 2, glycyrrhetinic acid], in series [1] (MDCK cells), the CC50 at 48 h worked out at 85 ± 6.8 µM. Moreover, in series [1] (MDCK cells (uninfected)), the viability at 48 h, 25 µM came to 82.8%.

For the compound `CC(=O)N[C@H]1[C@H]([C@H](O)[C@H](O)CO)OC(O)(C(=O)O)C[C@@H]1O` (stereo partly shown) [sialic acid], the dissociation constant (Kd) in series [2] was ~2 mM.

Take `CC(=O)O[C@H]1C(=O)[C@@]2(C)[C@H]([C@H](OC(=O)c3ccccc3)[C@]3(O)C[C@H](OC(=O)[C@H](O)[C@@H](NC(=O)c4ccccc4)c4ccccc4)C(C)=C1C3(C)C)[C@]1(OC(C)=O)CO[C@@H]1C[C@@H]2O` [PTX, paclitaxel]: the “viability of MDCK cells (words, positive control)” value in series [3] is recorded as “decrease in the viability”.

What is called CC50 is the concentration at which the toxic effect on the cells reaches its halfway point. The low end stands for harm at low concentration, the high end for better tolerance by the cells. The term viability denotes a read-out of living cells in per cent, often relative to untreated cells. High values mean better survival, low ones a greater loss of cells. In general, Kd refers to the free concentration of one partner at which half of the binding sites on the other are occupied at equilibrium, for simple one-to-one binding.
